In US20220184072A1 (priority 2019, published 2022):

Experiments:
[1] = morphine 30 mg/kg orally twice per day
[2] = tested on: TH (tyrosine hydroxylase); test: CNS phosphoprotein profile, TH; format: in vivo; conditions: mice nucleus accumbens; Example 1 3 mg/kg at 30 or 60 minutes; haloperidol 2 mg/kg
Experimental: A comprehensive molecular phosphorylation study is also carried out to examine the central nervous system (CNS) profile of the compound of Example 1. The extent of protein phosphorylation for selected key central nervous system proteins is measured in mice nucleus accumbens.
Mice were killed 30 minutes to 2 hours post-injection by focused microwave cranial irradiation, which preserves brain phosphoprotein as it exists at the time of death. Nucleus accumbens was then dissected from each mouse brain, sliced and frozen in liquid nitrogen. Samples were further prepared for phosphoprotein analysis via SDS-PAGE electrophoresis followed by phosphoprotein-specific immunoblotting, as described in Zhu H, et al., Brain Res. 2010 Jun. 25; 1342:11-23. Phosphorylation at each site was quantified, normalized to total levels of the protein (non-phosphorylated), and expressed as percent of the level of phosphorylation in vehicle-treated control mice.

SMILES | tolerance and dependence [1] | increase in TH phosphorylation at Ser40 [2]
CN1CC[C@]23c4c5ccc(O)c4O[C@H]2[C@@H](O)C=C[C@H]3[C@H]1C5 [Morphine] | clear signs of tolerance and dependence | –
O=C(CCCN1CCC(O)(c2ccc(Cl)cc2)CC1)c1ccc(F)cc1 [haloperidol] | – | greater than 400%
Cc1nc2n(c(=O)c1CCN1CCC(c3noc4cc(F)ccc34)CC1)CCCC2 [risperidone] | – | greater than 500%
